Earlier results on three compounds are cited in patent US6444224B1 (Interag, priority 1997, dated 2002).

The test system of series [1] is pigs. Particulars: oral, once daily at feeding.
For series [2], the system named is pigs. The note with it: 15, 25, 50 mg per day (IM) for 14 days.

Consider `C=CC[C@]1(O)CC[C@H]2[C@@H]3CCC4=CC(=O)CCC4=C3C=C[C@@]21C` [altrenogest], for which the “Effectiveness to control oestrus and ovulation” value in series [1] is “effective”.

`C=CC(C)NC(=S)NNC(=S)NC` (stereo not shown) [methallibure]: the “Effectiveness to control oestrus and ovulation” value in series [1] was “effective”. For the compound `CC(=O)[C@H]1CC[C@H]2[C@@H]3CCC4=CC(=O)CC[C@]4(C)[C@H]3CC[C@]12C` [progesterone], in series [2], the “Control of the oestrus cycle” value is listed as “results in control of the oestrus cycle” and the Fertility entry is on record as “poor fertility results”.
